The source of these data is article PMC6934949, “Calixmexitil: Calixarene-based Cluster of Mexiletine with Amplified Anti-myotonic Activity as A Novel Use-dependent Sodium Channel Blocker” (Iranian Journal of Pharmaceutical Research : IJPR, 2019).

The test deals with T1, sodium channel (voltage-gated, skeletal muscle).
T1 construct: gene scn4a; native channel in single semitendinosus muscle fibers
The experiment in a line: three vaseline gap voltage clamp of Na+ current, phasic ([…] Hz use-dependent) block. Conditions: read-out: Phasic block IC 50. The format is cell-based.

With `Cc1cccc(C)c1OCC(C)N` (racemic) [Mexiletine, 1-(2,6-dimethylphenoxy)-2-propanamine], the IC50 came out at 31 µM.

As to `CC(N)COc1c2cccc1Cc1cccc(c1OCC(C)N)Cc1cccc(c1OCC(C)N)Cc1cccc(c1OCC(C)N)C2` (centres unmarked) [compound 4, Calixmexitil], the IC50 was found to be 3 µM.
